Experimental data reported in PubChem BioAssay (NCI).
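Interpolation was linear, between the two tested concentrations surrounding the appropriate level; five concentrations were tested over 48 hours in 96-well plates. Here, GI50 denotes the concentration required for 50% inhibition of growth. Definition used: TGI = concentration required for complete inhibition of growth.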

Assays:
Experiment in all cases: NCI tumour cell line growth inhibition, 48 h
[1] = system: MDA-MB-231 breast
[2] = system: SK-MEL-28 melanoma
[3] = system: MOLT-4 leukemia
[4] = system: TK-10 renal
[5] = system: SN12C renal
[6] = system: SF-268 CNS
[7] = system: HL-60(TB) leukemia
[8] = system: HS 578T breast
[9] = system: HOP-62 NSCLC
[10] = system: HOP-92 NSCLC
[11] = system: SW-620 colon
[12] = system: HCT-116 colon
[13] = system: MCF7 breast
[14] = system: RXF 393 renal
[15] = system: BT-549 breast
[16] = system: 786-0 renal
[17] = system: UO-31 renal
[18] = system: MALME-3M melanoma
[19] = system: OVCAR-3 ovarian
[20] = system: DU-145 prostate
[21] = system: COLO 205 colon
[22] = system: SK-MEL-2 melanoma
[23] = system: SK-OV-3 ovarian
[24] = system: SR leukemia
[25] = system: U251 CNS
[26] = system: EKVX NSCLC
[27] = system: NCI/ADR-RES ovarian
[28] = system: NCI-H23 lung
[29] = system: RPMI-8226 leukemia
[30] = system: SK-MEL-5 melanoma
[31] = system: A498 renal
[32] = system: A549 NSCLC
[33] = system: LOX IMVI melanoma
[34] = system: PC-3 prostate
[35] = system: CAKI-1 renal
[36] = system: IGROV1 ovarian
[37] = system: UACC-62 melanoma
[38] = system: NCI-H522 lung
[39] = system: ACHN renal
[40] = system: UACC-257 melanoma
[41] = system: HCC-2998 colon
[42] = system: CCRF-CEM leukemia
[43] = system: HT29 colon
[44] = system: M14 melanoma
[45] = system: MDA-MB-435
[46] = system: OVCAR-8 ovarian
[47] = system: NCI-H226 lung
[48] = system: OVCAR-4 ovarian
[49] = system: SF-539 CNS
[50] = system: K-562 leukemia
[51] = system: SNB-19 CNS
[52] = system: NCI-H460 lung
[53] = system: KM12 colon
[54] = system: T-47D breast
[55] = system: HCT-15 colon
[56] = system: SNB-75 CNS
[57] = system: SF-295 CNS
[58] = system: OVCAR-5 ovarian

Q: What does the source list for CC(=O)OC1Oc2ccccc2-c2oc(=O)c(-c3ccc(F)cc3)cc21 (stereo unspecified)?
A: GI50 [1]: 33.9 µM; TGI [1]: > 100 µM; GI50 [2]: 32.6 µM; TGI [2]: > 100 µM; GI50 [3]: 14 µM; TGI [3]: 31.1 µM; GI50 [4]: 26.7 µM; TGI [4]: 83.8 µM; GI50 [5]: 35.1 µM; TGI [5]: > 100 µM; GI50 [6]: 29.6 µM; TGI [6]: > 100 µM; GI50 [7]: 24.9 µM; TGI [7]: > 100 µM; GI50 [8]: 10.4 µM; TGI [8]: 74.7 µM; GI50 [9]: 8.79 µM; TGI [9]: 40.2 µM; GI50 [10]: 29.6 µM; TGI [10]: 96.9 µM; GI50 [11]: 19 µM; TGI [11]: > 100 µM; GI50 [12]: 31.5 µM; TGI [12]: > 100 µM; GI50 [13]: 6.01 µM; TGI [13]: 40 µM; GI50 [14]: 26.8 µM; TGI [14]: 99.7 µM; GI50 [15]: 23.8 µM; TGI [15]: 69.1 µM; GI50 [16]: 17.7 µM; TGI [16]: 77.3 µM; GI50 [17]: 32.8 µM; TGI [17]: > 100 µM; GI50 [18]: 21.9 µM; TGI [18]: 70.7 µM; GI50 [19]: 23.2 µM; TGI [19]: 71.7 µM; GI50 [20]: 29 µM; TGI [20]: > 100 µM; GI50 [21]: 36.3 µM; TGI [21]: > 100 µM; GI50 [22]: 39.5 µM; TGI [22]: > 100 µM; GI50 [23]: 35 µM; TGI [23]: > 100 µM; GI50 [24]: 2.86 µM; TGI [24]: 9.08 µM; GI50 [25]: 16.8 µM; TGI [25]: > 100 µM; GI50 [26]: 9.46 µM; TGI [26]: 83.3 µM; GI50 [27]: 60 µM; TGI [27]: > 100 µM; GI50 [28]: 40.7 µM; TGI [28]: > 100 µM; GI50 [29]: 24.6 µM; TGI [29]: 60.3 µM; GI50 [30]: 14.9 µM; TGI [30]: 31 µM; GI50 [31]: 28.3 µM; TGI [31]: 71.9 µM; GI50 [32]: 38.8 µM; TGI [32]: > 100 µM; GI50 [33]: 16.6 µM; TGI [33]: 73.2 µM; GI50 [34]: 32.7 µM; TGI [34]: > 100 µM; GI50 [35]: 30.9 µM; TGI [35]: > 100 µM; GI50 [36]: 33.5 µM; TGI [36]: > 100 µM; GI50 [37]: 10.8 µM; TGI [37]: 33.6 µM; GI50 [38]: 20.2 µM; TGI [38]: 78.3 µM; GI50 [39]: 31.8 µM; TGI [39]: > 100 µM; GI50 [40]: 35.5 µM; TGI [40]: > 100 µM; GI50 [41]: 24.8 µM; TGI [41]: > 100 µM; GI50 [42]: 23.4 µM; TGI [42]: 55.2 µM; GI50 [43]: 21.6 µM; TGI [43]: > 100 µM; GI50 [44]: 25.3 µM; TGI [44]: 95.8 µM; GI50 [45]: 4.33 µM; TGI [45]: 40.3 µM; GI50 [46]: 36.3 µM; TGI [46]: > 100 µM; GI50 [47]: 29.7 µM; TGI [47]: 78.1 µM; GI50 [48]: 28.2 µM; TGI [48]: > 100 µM; GI50 [49]: 24.6 µM; TGI [49]: 74.6 µM; GI50 [50]: 17.1 µM; TGI [50]: > 100 µM; GI50 [51]: 30.6 µM; TGI [51]: > 100 µM; GI50 [52]: 25.2 µM; TGI [52]: > 100 µM; GI50 [53]: 12.2 µM; TGI [53]: 43 µM; GI50 [54]: 22.5 µM; TGI [54]: 93.3 µM; GI50 [55]: 20.9 µM; TGI [55]: > 100 µM; GI50 [56]: 5.59 µM; TGI [56]: 41.7 µM; GI50 [57]: 23.3 µM; TGI [57]: > 100 µM; GI50 [58]: 66.5 µM; TGI [58]: > 100 µM
